Assay results reported in US9771378B2 (Denali Therapeutics, Inc., priority 2014, dated 2017).
pIC50: −log10 of the molar value.

What follows are compounds tested on Aβ42 (human neuroglioma H4 cells expressing human wild type APP751) (assay: In vitro cell screening assay with sandwich ELISA quantification of Aβ42 peptide). Conditions: H4 cells stably expressing human wild type APP751; Pro293 chemically defined medium; compounds 0.003-10 μM; incubated overnight (16-18 h); supernatant Aβ42 by sandwich ELISA; normalized to DMSO and DAPT; read-out: Aβ42 H4 Prot Fre IC50.
Assay type: cell-based
Method in brief: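 Aβ42 in supernatants was quantified by sandwich ELISA with C-terminal-specific capture and 4G8-HRP detection, absorbance at 450 nm. Stable APP751-expressing human H4 cells received compound at 0.003-10 μM (0.33% DMSO) overnight (16-18 h). IC50 was derived from percent-of-DMSO-control data by nonlinear variable-slope fit.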
With `Cc1cn(-c2ccc(Nc3ncc4c(n3)N(C)C(c3ccc(Cl)cc3Cl)CO4)cc2F)cn1` (single isomer, unassigned; (-)) [Example 96B] the pIC50 was 6.06.
In the case of `COc1cc(Nc2ncc3c(n2)N(C)C(c2cc(F)c(F)cc2F)CO3)ccc1-n1cnc(C)c1` (single isomer, unassigned; (-)) [Example 97A], the pIC50 was 6.61.
With `Cc1cn(-c2ccc(Nc3ncc4c(n3)N(C)C(c3cc(F)c(F)cc3F)CO4)cc2F)cn1` (single isomer, unassigned; (-)) [Example 98B] the pIC50 was 5.68.
For `Cc1cn(-c2ccc(Nc3ncc4c(n3)N(C)C(c3ccc(F)cc3C(F)(F)F)CO4)cc2F)cn1` (single isomer, unassigned; (-)) [Example 99B], the pIC50 was 5.98.
Compound `Cc1cn(-c2ccc(Nc3ncc4c(n3)N(C)C(c3cc(Cl)ccc3C(F)(F)F)CO4)cc2F)cn1` (single isomer, unassigned; (-)) [Example 100B] has a pIC50 of 6.23.
In the case of `Cc1cn(-c2ccc(Nc3ncc4c(n3)N(C)C(c3ccc(F)cc3Cl)CO4)cc2F)cn1` (single isomer, unassigned; (-)) [Example 101B], the pIC50 was 6.16.
`Cc1cc(-c2ccc(Nc3ncc4c(n3)N(C)C(c3ccc(F)cc3Cl)CO4)cc2F)ccn1` (single isomer, unassigned; (-)) [Example 102B] gave a pIC50 of 5.87.
`COc1cc(Nc2ncc3c(n2)N(C)C(c2cc(F)c(F)cc2Cl)CO3)ccc1-n1cnc(C)c1` (single isomer, unassigned; (-)) [Example 103B] gave a pIC50 of 6.66.
Work on `Cc1cn(-c2ccc(Nc3ncc4c(n3)N(C)C(c3cc(F)ccc3C(F)(F)F)CO4)cc2F)cn1` (single isomer, unassigned; (-)) [Example 104A] yielded a pIC50 of 6.28.
`COc1cc(Nc2ncc3c(n2)N(C)C(c2cc(F)ccc2C(F)(F)F)CO3)ccc1-n1cnc(C)c1` (single isomer, unassigned; (-)) [Example 105A] showed a pIC50 of 7.06.
With `Cc1cn(-c2ccc(Nc3ncc4c(n3)N(C)C(c3ccc(Cl)cc3C(F)(F)F)CO4)cc2F)cn1` (single isomer, unassigned; (-)) [Example 106B] the pIC50 was 5.99.
`COc1cc(Nc2ncc3c(n2)N(C)C(c2ccc(Cl)cc2C(F)(F)F)CO3)ccc1-c1ccnc(C)c1` (single isomer, unassigned; (-)) [Example 107A] gave a pIC50 of 6.37.
In the case of `Cc1cn(-c2ccc(Nc3ncc4c(n3)N(C)C(C)CO4)cc2F)cn1` (single isomer, unassigned; (-)) [Example 108A], the pIC50 was 6.25.
In the case of `Cc1cn(-c2ccc(Nc3ncc4c(n3)N(C)C(C3CCOCC3)CO4)cc2F)cn1` (single isomer, unassigned; (-)) [Example 109B], the pIC50 was less than 5.52.
`COc1cc(Nc2ncc3c(n2)N(C)C(C)CO3)ccc1-c1ccnc(C)c1` (single isomer, unassigned; (-)) [Example 110A] showed a pIC50 of 6.70.
With `COc1cc(Nc2ncc3c(n2)N(C)C(c2ccc(Cl)cc2C(F)(F)F)CO3)ccc1-n1cnc(C)c1` (single isomer, unassigned; (-)) [Example 112A] the pIC50 was 6.64.
For `COc1cc(Nc2ncc3c(n2)N(C)C(C2CCOCC2)CO3)ccc1-n1cnc(C)c1` (single isomer, unassigned; (-)) [Example 114A], the pIC50 was 6.31.
With `Cc1cn(-c2ccc(Nc3ncc4c(n3)N(C)C(c3cc(F)c(F)c(F)c3)CO4)cc2)cn1` (single isomer, unassigned; (-)) [Example 115A] the pIC50 was 5.54.
`COc1cc(Nc2ncc3c(n2)N(C)C(C)CO3)ccc1-n1cnc(C)c1` (single isomer, unassigned; (-)) [Example 116A] gave a pIC50 of 6.83.
For `COc1cc(Nc2ncc3c(n2)N(C)C(c2ccc(F)cc2C)CO3)ccc1-n1cnc(C)c1` (single isomer, unassigned; (-)) [Example 117A], the pIC50 was 6.85.
`Cc1cn(-c2ccc(Nc3ncc4c(n3)N(C)C(c3cc(F)c(F)c(F)c3)CO4)cc2F)cn1` (single isomer, unassigned; (-)) [Example 118B] gave a pIC50 of 5.87.
Compound `COc1cc(Nc2ncc3c(n2)N(C)C(c2cc(Cl)ccc2C(F)(F)F)CO3)ccc1-n1cnc(C)c1` (single isomer, unassigned; (-)) [Example 165B] has a pIC50 of 7.10.
`COc1ccc(Cl)c(C2COc3cnc(Nc4ccc(-n5cnc(C)c5)c(OC)c4)nc3N2C)c1` (single isomer, unassigned; (-)) [Example 167B] showed a pIC50 of 7.12.
In the case of `COc1cc(Nc2ncc3c(n2)N(C)C(c2ccc(C(F)(F)F)cc2C(F)(F)F)CO3)ccc1-n1cnc(C)c1` (single isomer, unassigned; (-)) [Example 168A], the pIC50 was 6.25.
With `Cc1cn(-c2ccc(Nc3ncc4c(n3)N(C)C(c3cc(F)c(F)cc3Cl)CO4)cc2F)cn1` (single isomer, unassigned; (-)) [Example 169B] the pIC50 was 5.65.
With `COc1cc(Nc2ncc3c(n2)N(C)C(c2ccccc2C)CO3)cnc1-n1cnc(C)c1` (single isomer, unassigned; (-)) [Example 171B] the pIC50 was 7.17.
Work on `COc1cc(Nc2ncc3c(n2)N(C)C(CC(F)(F)F)CO3)ccc1-n1cnc(C)c1` (single isomer, unassigned; (-)) [Example 172A] yielded a pIC50 of 6.68.
Work on `Cc1cn(-c2ccc(Nc3ncc4c(n3)N(C)C(c3cc(C(F)(F)F)ccc3Cl)CO4)cc2F)cn1` (single isomer, unassigned; (-)) [Example 173B] yielded a pIC50 of 6.08.
`COc1cc(Cl)c(C2COc3cnc(Nc4ccc(-n5cnc(C)c5)c(OC)c4)nc3N2C)cc1Cl` (single isomer, unassigned; (-)) [Example 174A] was tested, and the pIC50 was 6.82.
`COc1ccc(C)c(C2COc3cnc(Nc4ccc(-n5cnc(C)c5)c(OC)c4)nc3N2C)c1` (single isomer, unassigned; (-)) [Example 175B] gave a pIC50 of 7.02.
Compound `COc1nc(Nc2ncc3c(n2)N(C)C(c2cc(F)cc(F)c2)CO3)ccc1-n1cnc(C)c1` (single isomer, unassigned; (-)) [Example 179A] has a pIC50 of less than 5.52.
Compound `COc1nc(Nc2ncc3c(n2)N(C)C(c2ccccc2C)CO3)ccc1-n1cnc(C)c1` (single isomer, unassigned; (-)) [Example 180A] has a pIC50 of less than 5.52.
In the case of `COc1cc(Nc2ncc3c(n2)N(C)C(c2cc(F)c(F)cc2F)CO3)cnc1-n1cnc(C)c1` (single isomer, unassigned; (-)) [Example 181A], the pIC50 was 8.05.
For `COc1cc(Nc2ncc3c(n2)N(C)C(c2cc(F)c(F)c(F)c2)CO3)cnc1-n1cnc(C)c1` (single isomer, unassigned; (-)) [Example 182B], the pIC50 was 6.75.
With `COc1nc(Nc2ncc3c(n2)N(C)C(c2cc(F)cc(F)c2)CO3)ccc1-c1ccnc(C)n1` (single isomer, unassigned; (-)) [Example 183B] the pIC50 was less than 5.52.
`COc1nc(Nc2ncc3c(n2)N(C)C(c2cc(F)cc(F)c2)CO3)ccc1-c1cnn(C)c1` (single isomer, unassigned; (-)) [Example 184A] gave a pIC50 of less than 5.52.
In the case of `COc1cc(Nc2ncc3c(n2)N(C)C(C)CO3)cnc1-n1cnc(C)c1` (single isomer, unassigned; (-)) [Example 185B], the pIC50 was 6.27.
`COc1cc(Nc2ncc3c(n2)N(C)C(c2ccc(F)cc2F)CO3)cnc1-n1cnc(C)c1` (single isomer, unassigned; (-)) [Example 186B] showed a pIC50 of 6.48.
`COc1cc(Nc2ncc3c(n2)N(C)C(C(F)(F)F)CO3)ccc1-n1cnc(C)c1` (single isomer, unassigned; (-)) [Example 187B] gave a pIC50 of 7.48.
For `COc1nc(Nc2ncc3c(n2)N(C)C(c2cc(F)c(F)c(F)c2)CO3)ccc1-n1cnc(C)c1` (single isomer, unassigned; (-)) [Example 188A], the pIC50 was less than 5.52.
